# Earlier results in patent US8207181B2, “Substituted dihydro, trihydro and tetrahydro cycloalkyloxazolopyrimidinones, preparation and use thereof” (Sanofi, priority 2008, dated 2012).
# How the values were obtained:
# [1] = test system: pentylenetetrazole- and picrotoxin-induced seizures
# healthy human subjects = conditions: pretreatment
# schizophrenia = conditions: compared to placebo
# animal models = conditions: some animal models
smiles,measurement,setting,value
N[C@H](C(=O)O)c1ccc(C(=O)O)c(O)c1 [(S)-4-carboxy-3-hydroxyphenylglycine],protection against audiogenic seizures,DBA/2 mice,protects against audiogenic seizures
N[C@@]1(C(=O)O)CC[C@H]2[C@H](C(=O)O)[C@H]21 [LY354740],effect on chemically induced seizures,[1],attenuates pentylenetetrazole- and picrotoxin-induced seizures
same,effect on ketamine disruption of working memory,healthy human subjects,"attenuation of the disruptive effects of the NMDA glutamate receptor antagonist, ketamine, on working memory"
N[C@@]1(C(=O)O)CO[C@H]2[C@H](C(=O)O)[C@H]21 [LY379268],effect on REM sleep and fast EEG,rat,suppresses rapid eye movement (REM) sleep and fast EEG
CSCC[C@H](N)C(=O)N[C@@]1(C(=O)O)CS(=O)(=O)[C@H]2[C@H](C(=O)O)[C@H]21 [LY2140023],improvement in positive and negative symptoms of schizophrenia,schizophrenia,statistically significant improvements in both positive and negative symptoms of schizophrenia
N[C@]1(C(=O)O)[C@H]2[C@@H](C[C@H]1OCc1ccc(Cl)c(Cl)c1)[C@]2(F)C(=O)O [MGS0039],antidepressant-like effects,animal models,dose-dependent antidepressant-like effects
Cc1c(OCc2cccc(-c3ccc(C(=O)O)cc3)c2)cc2c(c1C)C(=O)C(C1CCCC1)C2 (stereo not shown) [biphenyl-indanone A],antipsychotic- and anxiolytic-like effects,mice,antipsychotic- and anxiolytic-like effects
